Assay: pharmacological and clinical studies (potency versus racemate, influence of R-citalopram)
Type: in vivo
Details: presence of R-citalopram
Excerpt: This may be shown in functional in-vivo pharmacological models and studies of 5-HT-reuptake effect and or in behaviour models, for example depression models.

CN(C)CCC[C@]1(c2ccc(F)cc2)OCc2cc(C#N)ccc21 [R-citalopram]
influence on the effect of escitalopram: negative impact on the effect of escitalopram
